Key:
Type in all cases: biochemical
[1] = molecular target: T1, Human Calpain 2/NS1 (Homo sapiens, UniProt P17655); assay: Calpain inhibition continuous fluorescence (FRET) assay, Human Calpain 2/NS1; conditions: Column B; read-out: Human Calpain 2/NS1 IC50
T1 sequence (P17655 1-700): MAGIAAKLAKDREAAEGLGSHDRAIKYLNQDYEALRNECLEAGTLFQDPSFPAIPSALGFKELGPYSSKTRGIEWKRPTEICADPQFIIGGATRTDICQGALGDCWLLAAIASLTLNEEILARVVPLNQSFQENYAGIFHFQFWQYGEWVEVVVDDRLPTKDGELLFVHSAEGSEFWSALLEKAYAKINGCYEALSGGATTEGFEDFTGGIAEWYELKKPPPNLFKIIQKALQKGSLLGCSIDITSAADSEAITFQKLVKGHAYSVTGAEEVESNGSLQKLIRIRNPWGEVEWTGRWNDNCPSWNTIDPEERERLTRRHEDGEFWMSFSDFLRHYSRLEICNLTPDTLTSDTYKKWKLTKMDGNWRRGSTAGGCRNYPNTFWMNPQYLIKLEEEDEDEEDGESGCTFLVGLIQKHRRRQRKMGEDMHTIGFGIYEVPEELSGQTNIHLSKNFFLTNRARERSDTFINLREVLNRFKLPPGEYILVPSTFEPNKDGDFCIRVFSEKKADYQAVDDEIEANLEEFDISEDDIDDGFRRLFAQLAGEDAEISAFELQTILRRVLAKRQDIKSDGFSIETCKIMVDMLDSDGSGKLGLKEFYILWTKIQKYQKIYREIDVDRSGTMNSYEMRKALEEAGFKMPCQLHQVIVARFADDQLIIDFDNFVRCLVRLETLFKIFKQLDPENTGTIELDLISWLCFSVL
T1 sequence (P04632 1-268 partner): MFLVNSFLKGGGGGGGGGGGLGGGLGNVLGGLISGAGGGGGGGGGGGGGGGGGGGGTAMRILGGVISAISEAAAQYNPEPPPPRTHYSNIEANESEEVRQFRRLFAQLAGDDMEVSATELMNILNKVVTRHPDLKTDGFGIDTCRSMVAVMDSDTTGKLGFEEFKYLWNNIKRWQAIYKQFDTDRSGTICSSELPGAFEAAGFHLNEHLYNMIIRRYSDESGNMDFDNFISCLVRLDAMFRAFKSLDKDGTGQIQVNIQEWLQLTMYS
Method: (§1) Calpain 1, 2, and 9 activity and inhibition thereof was assessed by means of a continuous fluorescence assay. The SensoLyte 520 Calpain substrate (Anaspec Inc) was optimized for detecting calpain activity. This substrate contains an internally quenched 5-FAM/QXL™ 520 FRET pair. Calpains 1, 2, and 9 cleave the FRET substrate into two separate fragments resulting in an increase of 5-FAM fluorescence that is proportional to calpain activity
(§2) Assays were typically setup in black 384-well plates using automated liquid handling as follows. Calpain assay base buffer typically contains 50 mM Tris, pH 7.5, 100 mM NaCl and 1 mM DTT. Inhibitors were serially diluted in DMSO and used to setup 2× mixtures with calpains in the aforementioned buffer. After incubation at ambient temperature (25C), the reaction was initiated by adding a 2× mix of the fluorescent peptide substrate and CaCl2) (required for in-situ calpain activation) in the same buffer. Reaction progress curve data were typically collected for 10 min using excitation/emission wavelengths of 490 nm/520 nm on SpectraMax i3× or the FLIPR-Tetra plate readers (Molecular Devices Inc). Reaction rates were calculated from progress curve slopes typically over 1-5 min. Dose response curves (rate vs. log inhibitor concentration) were typically fit to a 4-parameter logistic function to extract IC50 values.

[2] = molecular target: T2, Human Calpain 9/NS1 (Homo sapiens, UniProt O14815); assay: Calpain inhibition continuous fluorescence (FRET) assay, Human Calpain 9/NS1; conditions: Column C; read-out: Human Calpain 9/NS1 IC50
T2 sequence (O14815 1-690): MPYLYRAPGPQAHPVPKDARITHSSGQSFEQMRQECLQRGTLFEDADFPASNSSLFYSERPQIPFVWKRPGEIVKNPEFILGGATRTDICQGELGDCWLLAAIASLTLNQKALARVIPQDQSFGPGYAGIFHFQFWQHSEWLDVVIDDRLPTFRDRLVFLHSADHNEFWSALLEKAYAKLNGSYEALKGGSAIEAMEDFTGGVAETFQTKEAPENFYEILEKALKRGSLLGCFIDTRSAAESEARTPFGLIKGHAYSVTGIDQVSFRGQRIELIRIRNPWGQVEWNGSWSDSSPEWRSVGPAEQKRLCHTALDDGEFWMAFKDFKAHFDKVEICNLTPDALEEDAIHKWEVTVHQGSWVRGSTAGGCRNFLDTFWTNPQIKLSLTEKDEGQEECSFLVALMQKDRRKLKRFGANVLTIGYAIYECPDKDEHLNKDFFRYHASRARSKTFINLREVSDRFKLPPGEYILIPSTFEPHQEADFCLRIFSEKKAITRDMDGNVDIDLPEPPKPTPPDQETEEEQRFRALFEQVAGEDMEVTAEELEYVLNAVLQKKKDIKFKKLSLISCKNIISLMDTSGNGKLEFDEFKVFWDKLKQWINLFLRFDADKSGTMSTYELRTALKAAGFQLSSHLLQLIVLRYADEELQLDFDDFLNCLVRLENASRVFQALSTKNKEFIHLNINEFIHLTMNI
T2 sequence (P04632 1-268 partner): T1 sequence (P04632 1-268 partner)
Method: as §1, §2

[3] = molecular target: T3, Human Calpain 1/NS1 (Homo sapiens, UniProt P07384); assay: Calpain inhibition continuous fluorescence (FRET) assay, Human Calpain 1/NS1; conditions: Column A; read-out: Human Calpain 1/NS1 IC50
T3 sequence (P07384 1-714): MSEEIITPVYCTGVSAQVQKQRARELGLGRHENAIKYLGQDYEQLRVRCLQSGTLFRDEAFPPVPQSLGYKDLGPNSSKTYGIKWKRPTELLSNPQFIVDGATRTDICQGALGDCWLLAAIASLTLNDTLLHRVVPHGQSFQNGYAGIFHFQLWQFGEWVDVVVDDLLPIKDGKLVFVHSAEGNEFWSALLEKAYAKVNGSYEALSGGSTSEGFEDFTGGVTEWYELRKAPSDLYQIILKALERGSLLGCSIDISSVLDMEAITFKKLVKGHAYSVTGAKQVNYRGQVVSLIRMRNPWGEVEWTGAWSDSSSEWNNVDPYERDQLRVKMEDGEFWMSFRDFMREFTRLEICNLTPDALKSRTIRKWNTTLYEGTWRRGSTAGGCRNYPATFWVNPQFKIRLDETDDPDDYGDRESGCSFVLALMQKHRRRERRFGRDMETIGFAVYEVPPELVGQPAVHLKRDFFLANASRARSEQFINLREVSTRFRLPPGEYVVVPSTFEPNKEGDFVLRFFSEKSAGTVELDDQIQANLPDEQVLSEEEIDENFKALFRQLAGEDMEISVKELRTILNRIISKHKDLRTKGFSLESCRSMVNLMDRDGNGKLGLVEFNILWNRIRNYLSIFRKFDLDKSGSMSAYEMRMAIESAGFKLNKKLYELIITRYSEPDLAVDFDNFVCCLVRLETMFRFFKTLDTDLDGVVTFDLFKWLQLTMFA
T3 sequence (P04632 1-268 partner): T1 sequence (P04632 1-268 partner)
Method: as §1, §2

SMILES | IC50 [1] | IC50 [2] | IC50 [3]
Cc1cc(C(=O)N[C@@H](Cc2ccccc2)C(=O)C(=O)NC2CC2)n(-c2ncccc2C)n1 [Compound 67, (S)—N-(4-(cyclopropylamino)-3,4-dioxo-1-phenylbutan-2-yl)-3-methyl-1-(3-methylpyridin-2-yl)-1H-pyrazole-5-carboxamide] | > 10 µM | > 10 µM | > 10 µM
NC(=O)C(=O)[C@H](Cc1ccccc1)NC(=O)c1cncn1-c1ccn(-c2ccccc2)n1 [Compound 68, (S)—N-(4-amino-3,4-dioxo-1-phenylbutan-2-yl)-1-(1-phenyl-1H-pyrazol-3-yl)-1H-imidazole-5-carboxamide] | < 3 µM | < 3 µM | < 3 µM
NC(=O)C(=O)[C@H](Cc1ccccc1)NC(=O)c1cncn1-c1n[nH]c2ccccc12 [Compound 69, (S)—N-(4-amino-3,4-dioxo-1-phenylbutan-2-yl)-1-(1H-indazol-3-yl)-1H-imidazole-5-carboxamide] | < 3 µM | < 3 µM | < 3 µM
NC(=O)C(=O)[C@H](Cc1ccccc1)NC(=O)c1cncn1-c1nc2ccccc2[nH]1 [Compound 70, (S)—N-(4-amino-3,4-dioxo-1-phenylbutan-2-yl)-1-(1H-benzo[d]imidazol-2-yl)-1H-imidazole-5-carboxamide] | < 3 µM | < 3 µM | < 3 µM
O=C(NC1CC1)C(=O)[C@H](Cc1ccccc1)NC(=O)c1cncn1-c1nc2ccccc2[nH]1 [Compound 71, (S)-1-(1H-benzo[d]imidazol-2-yl)-N-(4-(cyclopropylamino)-3,4-dioxo-1-phenylbutan-2-yl)-1H-imidazole-5-carboxamide] | 3 to 10 µM | > 10 µM | 3 to 10 µM
CC[C@@H](C)[C@H](NC(=O)c1c(C)noc1-c1ccccc1)C(=O)C(N)=O [Compound 73, N-((3S,4R)-1-amino-4-methyl-1,2-dioxohexan-3-yl)-3-methyl-5-phenylisoxazole-4-carboxamide] | < 3 µM | > 10 µM | < 3 µM
NC(=O)C(=O)[C@H](Cc1ccccc1)NC(=O)c1cncn1-c1ncc(-c2ccccc2)cn1 [Compound 74, (S)—N-(4-amino-3,4-dioxo-1-phenylbutan-2-yl)-1-(5-phenylpyrimidin-2-yl)-1H-imidazole-5-carboxamide] | < 3 µM | < 3 µM | < 3 µM
O=C[C@H](Cc1ccccc1)NC(=O)c1cncn1-c1ncc(-c2ccccc2)cn1 [Compound 75] | < 3 µM | 3 to 10 µM | < 3 µM
O=C(NC1CC1)C(=O)[C@H](Cc1ccccc1)NC(=O)c1cncn1-c1ncc(-c2ccccc2)cn1 [Compound 76, (S)—N-(4-(cyclopropylamino)-3,4-dioxo-1-phenylbutan-2-yl)-1-(5-phenylpyrimidin-2-yl)-1H-imidazole-5-carboxamide] | < 3 µM | 3 to 10 µM | < 3 µM
O=C(NC1CC1)C(=O)[C@H](Cc1ccccc1)NC(=O)c1cncn1-c1cc(-c2ncco2)ccn1 [Compound 77, (S)—N-(4-(cyclopropylamino)-3,4-dioxo-1-phenylbutan-2-yl)-1-(4-(oxazol-2-yl)pyridin-2-yl)-1H-imidazole-5-carboxamide] | 3 to 10 µM | > 10 µM | < 3 µM
Cc1cc(C(=O)N[C@@H](Cc2ccccc2)C(=O)C(=O)NC2CC2)n(-c2cccc3ncccc23)n1 [Compound 78, (S)—N-(4-(cyclopropylamino)-3,4-dioxo-1-phenylbutan-2-yl)-3-methyl-1-(quinolin-5-yl)-1H-pyrazole-5-carboxamide] | 3 to 10 µM | < 3 µM | > 10 µM
Cc1nc(C(=O)N[C@@H](Cc2ccccc2)C(=O)C(N)=O)c(-c2ccccc2)[nH]1 [Compound 79, (S)—N-(4-amino-3,4-dioxo-1-phenylbutan-2-yl)-2-methyl-5-phenyl-1H-imidazole-4-carboxamide] | < 3 µM | < 3 µM | < 3 µM
Cc1cc(C(=O)N[C@@H](Cc2ccccc2)C(=O)C(N)=O)nn1-c1nc(-c2ccccc2)cs1 [Compound 80, (S)—N-(4-amino-3,4-dioxo-1-phenylbutan-2-yl)-5-methyl-1-(4-phenylthiazol-2-yl)-1H-pyrazole-3-carboxamide] | < 3 µM | 3 to 10 µM | 3 to 10 µM
Cc1cc(C(=O)N[C@@H](Cc2ccccc2)C(=O)C(=O)NC2CC2)n(-c2cnccn2)n1 [Compound 85, (S)—N-(4-(cyclopropylamino)-3,4-dioxo-1-phenylbutan-2-yl)-3-methyl-1-(pyrazin-2-yl)-1H-pyrazole-5-carboxamide] | < 3 µM | < 3 µM | < 3 µM
O=C(NC1CC1)C(=O)[C@H](Cc1ccccc1)NC(=O)c1scnc1-n1ncc2ccccc21 [Compound 86, (S)—N-(4-(cyclopropylamino)-3,4-dioxo-1-phenylbutan-2-yl)-4-(1H-indazol-1-yl)thiazole-5-carboxamide] | < 3 µM | < 3 µM | < 3 µM
O=C(NC1CC1)C(=O)[C@H](Cc1ccccc1)NC(=O)c1scnc1-n1cc(-c2ccccc2)cn1 [Compound 87, (S)—N-(4-(cyclopropylamino)-3,4-dioxo-1-phenylbutan-2-yl)-4-(4-phenyl-1H-pyrazol-1-yl)thiazole-5-carboxamide] | < 3 µM | < 3 µM | > 10 µM
